# Results from ChEMBL document CHEMBL6078689, “Discovery of novel biaryl urea derivatives against IL-1β release with low toxicity based on NEK7 inhibitor” (Eur J Med Chem, 2025).
# Activity calls are given as the source filed them. No cut-off for these calls is given here.
# Test system: not listed separately
# Assay: Selectivity index, ratio of CC50 for C57BL/6 mouse BMDM cells to IC50 for Inhibition of NLRP3 inflammasome activation in LPS-induced C57BL/6 mouse BMDM cells assessed as reduction in IL-1beta release
# Assay type: toxicity, cell-based
# Settings: bone marrow-derived macrophages (BMDM cells), read-out: Ratio CC50/IC50
row,SMILES,selectivity ratio
1,CC(C)(O)c1coc(S(=O)(=O)NC(=O)Nc2c3c(cc4c2CCC4)CCC3)c1,> 118
2,CN1CCN(Cc2ccc(NC(=O)Nc3ccc(-c4ccc(N)nc4)cc3F)cc2C(F)(F)F)CC1,8.26
3,CC(=O)Nc1ccc(-c2ccc(NC(=O)Nc3ccc(CN4CCN(C)CC4)c(C(F)(F)F)c3)c(F)c2)cn1,80.3

# Target: Serine/threonine-protein kinase Nek7 (Homo sapiens, UniProt Q8TDX7)
# Sequence (Q8TDX7 whole entry): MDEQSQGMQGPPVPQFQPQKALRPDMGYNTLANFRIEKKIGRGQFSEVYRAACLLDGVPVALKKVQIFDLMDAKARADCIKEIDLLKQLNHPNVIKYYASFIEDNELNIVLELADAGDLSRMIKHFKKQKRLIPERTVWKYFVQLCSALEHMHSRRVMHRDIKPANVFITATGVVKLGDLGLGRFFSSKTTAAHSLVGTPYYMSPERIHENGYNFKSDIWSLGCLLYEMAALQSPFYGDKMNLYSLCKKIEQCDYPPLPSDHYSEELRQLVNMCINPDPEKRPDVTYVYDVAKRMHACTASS
# Assay: Inhibition of N-terminal GST-tagged full-length recombinant human NEK7 extracted from baculovirus infected in Sf9 cells preincubated for 20 mins followed by [32P]-ATP addition and measured after 2 hrs
# Settings: not given
row,IC50 [µM],SMILES
1,< 0.1,CN1CCN(Cc2ccc(NC(=O)Nc3ccc(-c4cn(C5CC5)c5ncnc(N)c45)cc3F)cc2C(F)(F)F)CC1

# Test system: not listed separately
# Assay: Cytotoxicity against C57BL/6 mouse BMDM cells assessed as cell viability incubated for 4 hrs by CCK-8 assay
# Assay type: toxicity, cell-based
# Settings: bone marrow-derived macrophages (BMDM cells)
row,SMILES,CC50 at 4 h [µM]
1,CC(C)(O)c1coc(S(=O)(=O)NC(=O)Nc2c3c(cc4c2CCC4)CCC3)c1,> 10
2,CN1CCN(Cc2ccc(NC(=O)Nc3ccc(-c4ccc(N)nc4)cc3F)cc2C(F)(F)F)CC1,0.247
3,CC(=O)Nc1ccc(-c2ccc(NC(=O)Nc3ccc(CN4CCN(C)CC4)c(C(F)(F)F)c3)c(F)c2)cn1,3.84

# Target: NLRP3-NEK7 (Mus musculus) (UniProt Q8R4B8+Q9ES74)
# Sequence (Q8R4B8 whole entry, looked up): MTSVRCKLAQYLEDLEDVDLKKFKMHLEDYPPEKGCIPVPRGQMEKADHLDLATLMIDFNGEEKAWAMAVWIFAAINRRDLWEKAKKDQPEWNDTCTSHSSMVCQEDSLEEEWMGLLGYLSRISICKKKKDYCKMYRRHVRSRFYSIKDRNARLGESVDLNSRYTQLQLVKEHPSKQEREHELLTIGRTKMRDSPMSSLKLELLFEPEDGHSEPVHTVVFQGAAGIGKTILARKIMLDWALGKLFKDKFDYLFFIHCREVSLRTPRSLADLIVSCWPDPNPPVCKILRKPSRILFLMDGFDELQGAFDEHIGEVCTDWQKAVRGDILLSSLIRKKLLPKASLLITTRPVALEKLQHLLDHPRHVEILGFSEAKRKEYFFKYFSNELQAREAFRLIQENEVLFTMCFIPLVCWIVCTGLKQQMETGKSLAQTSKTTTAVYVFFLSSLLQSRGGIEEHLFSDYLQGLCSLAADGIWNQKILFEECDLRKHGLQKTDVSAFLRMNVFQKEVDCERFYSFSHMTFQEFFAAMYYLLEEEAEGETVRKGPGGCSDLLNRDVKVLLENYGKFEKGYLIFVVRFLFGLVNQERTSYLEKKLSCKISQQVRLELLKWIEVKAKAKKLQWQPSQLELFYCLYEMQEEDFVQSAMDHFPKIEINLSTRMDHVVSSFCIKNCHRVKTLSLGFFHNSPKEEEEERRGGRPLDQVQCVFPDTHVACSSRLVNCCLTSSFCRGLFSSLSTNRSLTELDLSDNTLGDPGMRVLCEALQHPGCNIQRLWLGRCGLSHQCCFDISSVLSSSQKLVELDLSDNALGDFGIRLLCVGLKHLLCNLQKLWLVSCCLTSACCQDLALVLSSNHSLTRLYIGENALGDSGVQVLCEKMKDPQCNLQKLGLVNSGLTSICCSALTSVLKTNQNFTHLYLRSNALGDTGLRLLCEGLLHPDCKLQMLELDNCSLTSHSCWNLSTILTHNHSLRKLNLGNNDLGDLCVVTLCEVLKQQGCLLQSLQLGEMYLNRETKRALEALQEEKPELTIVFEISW
# Sequence (Q9ES74 whole entry, looked up): as the sequence (Q8TDX7 whole entry) above, with P14T, A52S, E150D, M273I, V285I, T286A, S302T counted along it
# Assay: Inhibition of NLRP3/NEK7 protein-protein interaction in LPS-induced C57BL/6 mouse BMDM cells by co-immunoprecipitation based Western blot analysis
# Assay type: cell-based
# Settings: not given
row,inhibition,SMILES
1,Active,CC(=O)Nc1ccc(-c2ccc(NC(=O)Nc3ccc(CN4CCN(C)CC4)c(C(F)(F)F)c3)c(F)c2)cn1

# Test system: not listed separately
# Assay: Inhibition of NLRP3 inflammasome activation in LPS-induced C57BL/6 mouse BMDM cells assessed as reduction in IL-1beta release preincubated with LPS for 1 hrs followed by compound addition and measured after 2 hrs by ELISA
# Assay type: cell-based
# Settings: C57BL/6, BMDM
row,IC50 [µM],SMILES
1,0.085,CC(C)(O)c1coc(S(=O)(=O)NC(=O)Nc2c3c(cc4c2CCC4)CCC3)c1
2,0.03,CN1CCN(Cc2ccc(NC(=O)Nc3ccc(-c4ccc(N)nc4)cc3F)cc2C(F)(F)F)CC1
3,0.048,CC(=O)Nc1ccc(-c2ccc(NC(=O)Nc3ccc(CN4CCN(C)CC4)c(C(F)(F)F)c3)c(F)c2)cn1

# Test system: not listed separately
# Assay: Cytotoxicity against C57BL/6 mouse BMDM cells assessed as cell viability at 0.1 uM incubated for 4 hrs by CCK-8 assay relative to control
# Assay type: toxicity, cell-based
# Settings: bone marrow-derived macrophages (BMDM cells), read-out: Activity
row,SMILES,"viability at 4 h, 0.1 µM [%]"
1,CN1CCN(Cc2ccc(NC(=O)Nc3ccc(-c4nc(N)cc5ccccc45)cc3F)cc2C(F)(F)F)CC1,122
2,CN1CCN(Cc2ccc(NC(=O)Nc3ccc(-c4cnc(N)c5ccccc45)cc3F)cc2C(F)(F)F)CC1,108
3,CN1CCN(Cc2ccc(NC(=O)Nc3ccc(-c4cccnc4N)cc3F)cc2C(F)(F)F)CC1,65
4,CN1CCN(Cc2ccc(NC(=O)Nc3ccc(-c4cc5ccccc5nc4N)cc3F)cc2C(F)(F)F)CC1,86
5,CC(=O)Nc1ccc(-c2ccc(NC(=O)Nc3ccc(CN4CCN(C)CC4)cc3)c(F)c2)cn1,94.9
6,CC(=O)Nc1ccc(-c2ccc(NC(=O)c3ccc(CN4CCN(C)CC4)c(C(F)(F)F)c3)c(F)c2)cn1,92.6
7,CN1CCN(Cc2ccc(NC(=O)Nc3ccc(-c4cccc(N)n4)cc3F)cc2C(F)(F)F)CC1,109
8,CN1CCN(Cc2ccc(NC(=O)Nc3ccc(-c4ccnc(N)n4)cc3F)cc2C(F)(F)F)CC1,78
9,CC(=O)Nc1ccc(-c2ccc(C(=O)Nc3ccc(CN4CCN(C)CC4)c(C(F)(F)F)c3)c(F)c2)cn1,90.4
10,CC(=O)Nc1ccc(-c2ccc(NC(=O)Nc3cccc(C(F)(F)F)c3)c(F)c2)cn1,96.4
11,CN1CCN(Cc2ccc(NC(=O)Nc3ccc(-c4cnc5cccnn45)cc3F)cc2C(F)(F)F)CC1,91.4
12,CN1CCN(Cc2ccc(NC(=O)Nc3ccc(-c4nc(N)c5ccccc5n4)cc3F)cc2C(F)(F)F)CC1,108
13,CN1CCN(Cc2ccc(NC(=O)Nc3ccc(-c4ccnc(N)c4)cc3F)cc2C(F)(F)F)CC1,112
14,CNc1ccc(-c2ccc(NC(=O)Nc3ccc(CN4CCN(C)CC4)c(C(F)(F)F)c3)c(F)c2)cn1,95.5
15,CN1CCN(Cc2ccc(NC(=O)Nc3ccc(-c4ccc(O)nc4)cc3F)cc2C(F)(F)F)CC1,106
16,CN1CCN(Cc2ccc(NC(=O)Nc3ccc(-c4cn(C5CC5)c5ncnc(N)c45)cc3F)cc2C(F)(F)F)CC1,17.2
17,CN1CCN(Cc2ccc(NC(=O)Nc3ccc(-c4ccc(N)nc4)cc3F)cc2C(F)(F)F)CC1,86
18,CC(=O)Nc1ccc(-c2ccc(NC(=O)Nc3ccc(CN4CCN(C)CC4)c(C(F)(F)F)c3)c(F)c2)cn1,98.3
19,CN1CCN(Cc2ccc(NC(=O)Nc3ccc(-c4ccc(N)cn4)cc3F)cc2C(F)(F)F)CC1,104
20,CN1CCN(Cc2ccc(NC(=O)Nc3ccc(-c4c(N)ncc5ccccc45)cc3F)cc2C(F)(F)F)CC1,61.1
21,CN1CCN(Cc2ccc(NC(=O)Nc3ccc(-c4nccnc4N)cc3F)cc2C(F)(F)F)CC1,107
22,COc1ccc(-c2ccc(NC(=O)Nc3ccc(CN4CCN(C)CC4)c(C(F)(F)F)c3)c(F)c2)cn1,104
23,CN1CCN(Cc2ccc(NC(=O)Nc3ccc(-c4cncnc4N)cc3F)cc2C(F)(F)F)CC1,106
24,CN1CCN(Cc2ccc(NC(=O)Nc3ccc(-c4ncc(N)cn4)cc3F)cc2C(F)(F)F)CC1,71.8

# Test system: BMDM
# Assay: Binding affinity to NEK7 in LPS-primed C57BL/6 mouse BMDM cells assessed as thermal stabilization preincubated with LPS for 1 hrs followed by compound addition and incubated for 2 hrs under 48 to 53 degreeC by CETSA
# Assay type: cell-based
# Settings: not given
row,SMILES,Activity
1,CC(=O)Nc1ccc(-c2ccc(NC(=O)Nc3ccc(CN4CCN(C)CC4)c(C(F)(F)F)c3)c(F)c2)cn1,Active; Compound Is Capable Of Binding To Nek7

# Test system: BMDM
# Assay: Inhibition of NLRP3 inflammasome activation in LPS-induced C57BL/6 mouse BMDM cells assessed as reduction in IL-1beta release at 0.1 uM preincubated with LPS for 1 hrs followed by compound addition and measured after 2 hrs by ELISA relative to control
# Assay type: cell-based
# Settings: not given
row,SMILES,inhibition [%]
1,CN1CCN(Cc2ccc(NC(=O)Nc3ccc(-c4nc(N)cc5ccccc45)cc3F)cc2C(F)(F)F)CC1,30.6
2,CN1CCN(Cc2ccc(NC(=O)Nc3ccc(-c4cnc(N)c5ccccc45)cc3F)cc2C(F)(F)F)CC1,-7.76
3,CC(=O)Nc1ccc(-c2ccc(NC(=O)c3ccc(CN4CCN(C)CC4)c(C(F)(F)F)c3)c(F)c2)cn1,0
4,CN1CCN(Cc2ccc(NC(=O)Nc3ccc(-c4ccnc(N)n4)cc3F)cc2C(F)(F)F)CC1,25.7
5,CC(=O)Nc1ccc(-c2ccc(NC(=O)Nc3cccc(C(F)(F)F)c3)c(F)c2)cn1,-7.98
6,CN1CCN(Cc2ccc(NC(=O)Nc3ccc(-c4cnc5cccnn45)cc3F)cc2C(F)(F)F)CC1,-9.39
7,CC(C)(O)c1coc(S(=O)(=O)NC(=O)Nc2c3c(cc4c2CCC4)CCC3)c1,66.7
8,CN1CCN(Cc2ccc(NC(=O)Nc3ccc(-c4ccnc(N)c4)cc3F)cc2C(F)(F)F)CC1,3.67
9,CNc1ccc(-c2ccc(NC(=O)Nc3ccc(CN4CCN(C)CC4)c(C(F)(F)F)c3)c(F)c2)cn1,41.5
10,CN1CCN(Cc2ccc(NC(=O)Nc3ccc(-c4ccc(N)nc4)cc3F)cc2C(F)(F)F)CC1,82.3
11,CC(=O)Nc1ccc(-c2ccc(NC(=O)Nc3ccc(CN4CCN(C)CC4)c(C(F)(F)F)c3)c(F)c2)cn1,90.3
12,CN1CCN(Cc2ccc(NC(=O)Nc3ccc(-c4nccnc4N)cc3F)cc2C(F)(F)F)CC1,28.2
13,CN1CCN(Cc2ccc(NC(=O)Nc3ccc(-c4cncnc4N)cc3F)cc2C(F)(F)F)CC1,-1.08
